Non-standard residues stand in square brackets, D forms with d. Residues, ends and D or L forms follow the SMILES beside them. *: point of attachment. Desaminotyrosyl = O=C(CCc1ccc(O)cc1)*; Agmatine = N=C(N)NCCCCN*; Nle = CCCC[C@H](N)C(=O)O; Orn = NCCC[C@H](N)C(=O)O; Abu = CC[C@H](N)C(=O)O
Assays:
GH release = assay: GH releasing potency in vivo, subcutaneous administration (Example 14, Table 12); parameters: species or system rat; settings: s.c.
Summary of the method: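 Potency is expressed relative to GHRH(1-29)NH2 and JI-38 (each = 1), via equivalent GHRH(1-29)NH2 dose read from a standard curve. Peptides in 5% mannitol given i.v. or s.c. to anaesthetised male Sprague-Dawley rats (200-250 g); serum GH measured by ELISA at selected times.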

GHRH receptor = biological target: T1, GHRH receptor (Homo sapiens, UniProt Q02643); assay: GHRH receptor binding, competition with 125I-labeled JV-1-42, human pituitary membrane homogenates (Table 7); parameters: Normal human pituitaries were purchased from the National Hormone and Peptide Program; tissue National Hormone and Peptide Program (A.F. Parlow, Harbor-UCLA Medical Center, Torrance, Calif.); host or cells: normal human pituitary, membrane fraction
T1 sequence (Q02643 23-423): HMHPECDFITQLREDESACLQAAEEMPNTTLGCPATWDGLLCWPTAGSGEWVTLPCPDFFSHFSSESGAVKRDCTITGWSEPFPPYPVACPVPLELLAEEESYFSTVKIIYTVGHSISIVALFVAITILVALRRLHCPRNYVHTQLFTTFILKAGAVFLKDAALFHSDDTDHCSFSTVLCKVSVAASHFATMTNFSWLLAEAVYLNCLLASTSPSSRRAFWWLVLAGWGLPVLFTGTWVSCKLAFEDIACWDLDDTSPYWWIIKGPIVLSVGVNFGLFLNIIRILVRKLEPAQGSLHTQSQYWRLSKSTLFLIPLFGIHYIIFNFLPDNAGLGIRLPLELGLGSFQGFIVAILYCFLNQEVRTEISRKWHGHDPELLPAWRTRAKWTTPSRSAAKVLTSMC
Excerpt: Normal human pituitaries were purchased from the National Hormone and Peptide Program (A.F. Parlow, Los Angeles, County Harbor-UCLA Medical Center, Torrance, Calif.).

For CCCC[C@H](NC(=O)[C@@H](NC(=O)[C@H](CC(=O)O)NC(=O)[C@H](CCC(N)=O)NC(=O)[C@H](CC(C)C)NC(=O)[C@H](CC(C)C)NC(=O)[C@H](CCCN)NC(=O)[C@H](CCCNC(=N)N)NC(=O)[C@H](C)NC(=O)[C@H](CO)NC(=O)[C@H](CC(C)C)NC(=O)[C@H](CCC(N)=O)NC(=O)[C@H](CC)NC(=O)[C@H](CC(C)C)NC(=O)[C@@H](NC(=O)[C@H](CCCN)NC(=O)[C@H](CCCNC(=N)N)NC(=O)[C@H](Cc1ccc(O)cc1)NC(=O)[C@H](CO)NC(=O)[C@H](CCC(N)=O)NC(=O)[C@@H](NC(=O)[C@H](Cc1ccccc1)NC(=O)[C@@H](NC(=O)[C@H](C)NC(=O)[C@H](CC(=O)O)NC(=O)[C@H](C)NC(=O)CCc1ccc(O)cc1)[C@@H](C)CC)[C@@H](C)O)C(C)C)[C@@H](C)CC)C(=O)N[C@@H](CC(=O)O)C(=O)NCCCCNC(=N)N [JI-38, [Dat^1, Gln^8, Orn^12,21, Abu^15, Nle^27, Asp^28, Agm^29]hGHRH(1-29)NH2, reference compound] (Desaminotyrosyl-ADAIFTQSYR[Orn]VL[Abu]QLSAR[Orn]LLQDI[Nle]D-Agmatine), the “Serum GH level at selected time after injection (ng/ml), 0 min” value (GH release; male rats, dose 3 μg/kg, 0 min, mean ± SEM) was 33.2 ± 2.8 ng/mL, the “Serum GH level at selected time after injection (ng/ml), 15 min” value (GH release; male rats, dose 3 μg/kg, 15 min, mean ± SEM) was 230.0 ± 15.1 ng/mL and the “Serum GH level at selected time after injection (ng/ml), 30 min” value (GH release; male rats, dose 3 μg/kg, 30 min, mean ± SEM) was 128.7 ± 13.3 ng/mL. The “Relative potency compared to GHRH(1-29), 15 min” value (GH release; 15 min) was 63.1, the “Relative potency compared to JI-38, 15 min” value (GH release; 15 min) was 1.00 and the “Relative potency compared to GHRH(1-29), 30 min” value (GH release; 30 min) was 111.8. The “Relative potency compared to JI-38, 30 min” value (GH release; 30 min) was 1.00, the IC50 (GHRH receptor; 125I-JV-1-42, human pituitary membranes, Table 7) was 4.35 nM and the “Relative affinity (Binding potency) vs JI-38” value (GHRH receptor; JI-38 = 1, Table 7) was 1.
